# Source: the supplement of paper PMC10733146
# Key:
# Experiment in all cases: viability relative to DMSO control (fraction); higher = less drug effect (more viable cells)
# Settings in all cases: 48 h
# [1] = compound: C1=N/C2=N/c3ccc(OCCN4CCCC4)c(c3)COC/C=C/COCc3cccc(c3)C(=C1)N2 [Pacritinib]
# In short: (§1)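 Viability is given as CellTiter-Glo luminescence relative to the median of 16 inner DMSO wells. Fresh or cryopreserved primary mononuclear tumour cells from blood, bone marrow (both Ficoll-isolated) or processed lymph node were plated at 4 × 10^4 cells per well in 384-well plates against five pre-plated compound concentrations, one well each. Incubation lasted 48 h at 37 °C and 5% CO2 in RPMI-1640 with penicillin/streptomycin, L-glutamine and human serum.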
# [2] = compound: CC(C)(C)c1cc(NC(=O)Nc2ccc(-c3cn4c(n3)sc3cc(OCCN5CCOCC5)ccc34)cc2)no1 [Quizartinib]
# In short: as §1
# [3] = compound: CC(C)C[C@H](NC(=O)[C@H](CCc1ccccc1)NC(=O)CN1CCOCC1)C(=O)N[C@@H](Cc1ccccc1)C(=O)N[C@@H](CC(C)C)C(=O)[C@@]1(C)CO1 [Carfilzomib]
# In short: as §1
# [4] = compound: Cn1c(=O)n(-c2ccc(C(C)(C)C#N)cc2)c2c3cc(-c4cnc5ccccc5c4)ccc3ncc21 [BEZ235]
# In short: as §1
# [5] = compound: Nc1nc2n[nH]nc2c(=O)[nH]1 [8-Azaguanin]
# In short: as §1
# [6] = compound: Cc1cn(-c2cc(NC(=O)c3ccc(C)c(Nc4nccc(-c5cccnc5)n4)c3)cc(C(F)(F)F)c2)cn1 [Nilotinib]
# In short: as §1
# [7] = compound: CC(C)(O)CNc1nc(Nc2ccnc(C(F)(F)F)c2)nc(-c2cccc(C(F)(F)F)n2)n1 [AG-221 (Enasidinib)]
# In short: as §1
# [8] = compound: Cc1cc(Nc2cc(N3CCN(C)CC3)nc(Sc3ccc(NC(=O)C4CC4)cc3)n2)n[nH]1 [Tozasertib]
# In short: as §1
# [9] = compound: CC[C@]1(O)C[C@H]2CN(CCc3c([nH]c4ccccc34)[C@@](C(=O)OC)(c3cc4c(cc3OC)N(C=O)[C@H]3[C@@](O)(C(=O)OC)[C@H](OC(C)=O)[C@]5(CC)C=CCN6CC[C@]43[C@@H]65)C2)C1 [Vincristine]
# In short: as §1
# [10] = compound: CC#CC(=O)N1CC[C@@H](n2c(=O)n(-c3ccc(Oc4ccccc4)cc3)c3c(N)ncnc32)C1 [ONO-4059]
# In short: as §1
# [11] = compound: CC(C)C[C@H](NC(=O)[C@H](Cc1ccccc1)NC(=O)c1cnccn1)B(O)O [Bortezomib]
# In short: as §1
# [12] = compound: CC[C@@H]1C(=O)N(C)c2cnc(Nc3ccc(C(=O)N[C@H]4CC[C@H](N5CCN(CC6CC6)CC5)CC4)cc3OC)nc2N1C(C)C [BI6727]
# In short: as §1
# [13] = compound: COc1nc(N)nc2c1ncn2[C@@H]1O[C@H](CO)[C@@H](O)[C@@H]1O [Nelarabine]
# In short: as §1
# [14] = compound: CC(C)N(C[C@H]1O[C@@H](n2cnc3c(N)ncnc32)[C@H](O)[C@@H]1O)[C@H]1C[C@@H](CCc2nc3cc(C(C)(C)C)ccc3[nH]2)C1 [EPZ-5676]
# In short: as §1
test system,measurement,setting,value
primary DLBCL patient cells (S082),viability,[1]; 0.024 µM,0.963
same,viability,[1]; 0.12 µM,0.972
same,viability,[1]; 0.6 µM,0.916
same,viability,[1]; 3 µM,0.543
same,viability,[1]; 15 µM,0.0168
same,viability,[2]; 0.016 µM,1.06
same,viability,[2]; 0.08 µM,1.13
same,viability,[2]; 0.4 µM,1.01
same,viability,[2]; 2 µM,1.07
same,viability,[2]; 10 µM,1.15
same,viability,[3]; 0.00016 µM,0.895
same,viability,[3]; 0.0008 µM,1.01
same,viability,[3]; 0.004 µM,0.0334
same,viability,[3]; 0.02 µM,0.018
same,viability,[3]; 0.1 µM,0.0218
same,viability,[4]; 0.024 µM,0.931
same,viability,[4]; 0.12 µM,1.05
same,viability,[4]; 0.6 µM,0.958
same,viability,[4]; 3 µM,1.07
same,viability,[4]; 15 µM,0.737
same,viability,[5]; 0.032 µM,1.01
same,viability,[5]; 0.16 µM,1.05
same,viability,[5]; 0.8 µM,0.976
same,viability,[5]; 4 µM,0.918
same,viability,[5]; 20 µM,0.531
same,viability,[6]; 0.016 µM,1.06
same,viability,[6]; 0.08 µM,1.04
same,viability,[6]; 0.4 µM,1.09
same,viability,[6]; 2 µM,1.08
same,viability,[6]; 10 µM,1.11
same,viability,[7]; 0.024 µM,0.848
same,viability,[7]; 0.12 µM,0.871
same,viability,[7]; 0.6 µM,1.09
same,viability,[7]; 3 µM,1
same,viability,[7]; 15 µM,1.06
same,viability,[8]; 0.024 µM,0.94
same,viability,[8]; 0.12 µM,0.892
same,viability,[8]; 0.6 µM,0.821
same,viability,[8]; 3 µM,0.618
same,viability,[8]; 15 µM,0.364
same,viability,[9]; 0.016 µM,0.609
same,viability,[9]; 0.08 µM,0.561
same,viability,[9]; 0.4 µM,0.474
same,viability,[9]; 2 µM,0.446
same,viability,[9]; 10 µM,0.396
same,viability,[10]; 0.0016 µM,0.786
same,viability,[10]; 0.008 µM,0.587
same,viability,[10]; 0.04 µM,0.483
same,viability,[10]; 0.2 µM,0.413
same,viability,[10]; 1 µM,0.391
same,viability,[11]; 0.008 µM,0.846
same,viability,[11]; 0.04 µM,0.987
same,viability,[11]; 0.2 µM,0.842
same,viability,[11]; 1 µM,0.899
same,viability,[11]; 5 µM,0.882
same,viability,[12]; 0.024 µM,0.916
same,viability,[12]; 0.12 µM,0.857
same,viability,[12]; 0.6 µM,0.623
same,viability,[12]; 3 µM,0.351
same,viability,[12]; 15 µM,0.256
same,viability,[13]; 0.024 µM,1.06
same,viability,[13]; 0.12 µM,1.05
same,viability,[13]; 0.6 µM,0.961
same,viability,[13]; 3 µM,1
same,viability,[13]; 15 µM,0.76
same,viability,[14]; 0.0032 µM,0.925
same,viability,[14]; 0.016 µM,1.1
same,viability,[14]; 0.08 µM,0.88
same,viability,[14]; 0.4 µM,0.953
same,viability,[14]; 2 µM,1.1
primary AML patient cells (S017),viability,[1]; 0.024 µM,1.02
same,viability,[1]; 0.12 µM,1.17
same,viability,[1]; 0.6 µM,0.992
same,viability,[1]; 3 µM,0.378
same,viability,[1]; 15 µM,0.028
same,viability,[2]; 0.016 µM,1.02
same,viability,[2]; 0.08 µM,1.14
same,viability,[2]; 0.4 µM,1.12
same,viability,[2]; 2 µM,1.03
same,viability,[2]; 10 µM,1.06
same,viability,[3]; 0.00016 µM,1.17
same,viability,[3]; 0.0008 µM,1.02
same,viability,[3]; 0.004 µM,0.53
same,viability,[3]; 0.02 µM,0.104
same,viability,[3]; 0.1 µM,0.0755
same,viability,[4]; 0.024 µM,0.948
same,viability,[4]; 0.12 µM,1.02
same,viability,[4]; 0.6 µM,0.919
same,viability,[4]; 3 µM,0.969
same,viability,[4]; 15 µM,0.604
same,viability,[5]; 0.032 µM,1.03
same,viability,[5]; 0.16 µM,0.984
same,viability,[5]; 0.8 µM,0.818
same,viability,[5]; 4 µM,0.559
same,viability,[5]; 20 µM,0.401
same,viability,[6]; 0.016 µM,1.14
same,viability,[6]; 0.08 µM,0.991
same,viability,[6]; 0.4 µM,1.12
same,viability,[6]; 2 µM,1.06
same,viability,[6]; 10 µM,1.12
same,viability,[7]; 0.024 µM,0.984
same,viability,[7]; 0.12 µM,0.961
same,viability,[7]; 0.6 µM,1.1
same,viability,[7]; 3 µM,0.951
same,viability,[7]; 15 µM,0.808
same,viability,[8]; 0.024 µM,0.97
same,viability,[8]; 0.12 µM,0.912
same,viability,[8]; 0.6 µM,0.926
same,viability,[8]; 3 µM,0.771
same,viability,[8]; 15 µM,0.487
same,viability,[9]; 0.016 µM,0.944
same,viability,[9]; 0.08 µM,1.14
same,viability,[9]; 0.4 µM,0.809
same,viability,[9]; 2 µM,0.885
same,viability,[9]; 10 µM,0.665
same,viability,[10]; 0.0016 µM,1.07
same,viability,[10]; 0.008 µM,1.05
same,viability,[10]; 0.04 µM,1.36
same,viability,[10]; 0.2 µM,1.03
same,viability,[10]; 1 µM,1.09
same,viability,[11]; 0.008 µM,0.937
same,viability,[11]; 0.04 µM,1.1
same,viability,[11]; 0.2 µM,0.995
same,viability,[11]; 1 µM,1.07
same,viability,[11]; 5 µM,1.03
same,viability,[12]; 0.024 µM,0.906
same,viability,[12]; 0.12 µM,0.884
same,viability,[12]; 0.6 µM,0.884
same,viability,[12]; 3 µM,0.406
same,viability,[12]; 15 µM,0.154
same,viability,[13]; 0.024 µM,1.01
same,viability,[13]; 0.12 µM,1.02
same,viability,[13]; 0.6 µM,0.981
same,viability,[13]; 3 µM,1.08
same,viability,[13]; 15 µM,0.882
same,viability,[14]; 0.0032 µM,0.919
same,viability,[14]; 0.016 µM,1.01
same,viability,[14]; 0.08 µM,0.959
same,viability,[14]; 0.4 µM,0.984
same,viability,[14]; 2 µM,1.05
